Test systems include SF-539 CNS; UACC-62 melanoma; M14 melanoma; CCRF-CEM leukemia; SN12C renal; OVCAR-4 ovarian; T-47D breast; SW-620 colon; K-562 leukemia; EKVX NSCLC.
Holding throughout (assay): DTP human tumour cell line panel, 48 h

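Cultured in 96-well plates, cells were exposed to test compound for 48 hours across five concentrations. GI50 = concentration required for 50% inhibition of growth. TGI denotes the concentration required for complete inhibition of growth.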

`Cn1cc(C2=C(c3c4n(c5ccccc35)CCCCC4)C(=O)NC2=O)c2ccccc21`: the GI50 in the assay on SF-539 CNS is 2.86 µM; in the assay with UACC-62 melanoma, 1.27 µM; with M14 melanoma it was 4.69 µM; in the assay on CCRF-CEM leukemia, 5.21 µM; in the assay on SN12C renal it was 9.88 µM; in the assay on OVCAR-4 ovarian it was 7.32 µM. Besides, the GI50 is 8.64 µM in the assay with T-47D breast, 2.19 µM in the assay on SW-620 colon and 1.38 µM in the assay on K-562 leukemia. Besides, the TGI with SF-539 CNS is 15.5 µM; in the assay on UACC-62 melanoma, > 25 µM; in the assay on M14 melanoma, > 25 µM; in the assay on CCRF-CEM leukemia it was > 22.7 µM; with SN12C renal, > 25 µM; in the assay on OVCAR-4 ovarian it was > 25 µM. The TGI with T-47D breast, in the assay with SW-620 colon and with K-562 leukemia was > 25 µM throughout.
As to `CN1CCCCC1CCN1c2ccccc2Sc2ccc(Cl)cc21` (centres undefined), the GI50 in the assay on SF-539 CNS is 2.29 µM; with UACC-62 melanoma, 2.16 µM; in the assay with M14 melanoma, 2.02 µM; in the assay with CCRF-CEM leukemia it was 3.81 µM; with SN12C renal it was 3.65 µM; with OVCAR-4 ovarian, 3.66 µM. Moreover, the GI50 was 4.25 µM in the assay with T-47D breast, 2.87 µM in the assay on SW-620 colon and 2.6 µM in the assay with K-562 leukemia. Besides, the TGI in the assay on SF-539 CNS is 5.42 µM; with UACC-62 melanoma, 5.61 µM; in the assay with M14 melanoma, 3.97 µM; with CCRF-CEM leukemia it was 13.5 µM; with SN12C renal, 13.9 µM; with OVCAR-4 ovarian, 16 µM. Also, the TGI amounted to 18.8 µM in the assay on T-47D breast, 10.1 µM in the assay with SW-620 colon and 7.57 µM in the assay on K-562 leukemia.
For `CC(=O)OC1OC([C@@H]2c3cccc(O)c3C(=O)c3c(O)cc(C)cc32)C(O)C(O)C1O` (some centres undefined), the GI50 is 0.0419 µM in the assay on SF-539 CNS; 0.0211 µM in the assay on UACC-62 melanoma; 0.12 µM in the assay on M14 melanoma; 0.026 µM with EKVX NSCLC; 0.0494 µM in the assay with CCRF-CEM leukemia; < 0.0179 µM in the assay with SN12C renal. In addition, the 50% growth inhibitory concentration (GI50) is 0.306 µM with T-47D breast, 0.0231 µM in the assay with SW-620 colon and 0.0216 µM with K-562 leukemia. For the same compound, the TGI in the assay with SF-539 CNS was 1.47 µM; with UACC-62 melanoma, 1.52 µM; in the assay on M14 melanoma, 1.9 µM; in the assay with EKVX NSCLC it was 0.368 µM; in the assay on CCRF-CEM leukemia it was 1.63 µM; with SN12C renal, < 0.0321 µM. Further, the TGI was 0.87 µM with T-47D breast, 1.73 µM in the assay with SW-620 colon and 1.39 µM with K-562 leukemia.
On to `Nc1c(C(=O)c2cccc(CCS(N)(=O)=O)c2)cnn1-c1ccc(F)cc1`, for which the GI50 with SF-539 CNS, in the assay on UACC-62 melanoma, with M14 melanoma, in the assay on CCRF-CEM leukemia, in the assay on SN12C renal and in the assay with OVCAR-4 ovarian was > 25 µM in each case. The figures for the GI50 in the assay with T-47D breast, with SW-620 colon and in the assay on K-562 leukemia were > 20.6 µM, > 25 µM and > 25 µM, respectively. Further, the TGI with SF-539 CNS, in the assay on UACC-62 melanoma, in the assay on M14 melanoma, in the assay with CCRF-CEM leukemia, in the assay with SN12C renal and with OVCAR-4 ovarian was > 25 µM throughout. Besides, the TGI with T-47D breast, in the assay on SW-620 colon and in the assay with K-562 leukemia was > 25 µM throughout.
As for `Cc1ccc2c(C)c3c(ccc4ccccc43)c[n+]2c1`, the GI50 with SF-539 CNS was 13.8 µM; in the assay on UACC-62 melanoma, 8.88 µM; in the assay on M14 melanoma, 14.1 µM; in the assay on EKVX NSCLC it was 0.775 µM; in the assay with CCRF-CEM leukemia, 8.89 µM; in the assay on SN12C renal, 2.18 µM. Also, the results for the GI50 in the assay on OVCAR-4 ovarian, in the assay with T-47D breast and with K-562 leukemia were 5.21 µM, 1.73 µM and 9.3 µM, respectively. For the same compound, the TGI in the assay with SF-539 CNS is 28.2 µM; in the assay with UACC-62 melanoma, 22 µM; in the assay on M14 melanoma it was 31.7 µM; in the assay with EKVX NSCLC, > 100 µM; in the assay on CCRF-CEM leukemia it was 38.9 µM; in the assay on SN12C renal, 18.2 µM. Also, the TGI worked out at 41.7 µM with OVCAR-4 ovarian, 7.18 µM with T-47D breast and 47.3 µM in the assay with K-562 leukemia.
Take `COC(=O)/C=C1\S/C(=N\NC(=O)c2cc3ccc2/C=C\c2ccc(cc2)/C=C\3)N(c2ccccc2)C1=O`: the GI50 in the assay on SF-539 CNS is 1.79 µM; with UACC-62 melanoma, 1.96 µM; in the assay on M14 melanoma, 3.27 µM; with EKVX NSCLC, 1.91 µM; with SN12C renal, 2.27 µM; in the assay on OVCAR-4 ovarian it was 3.17 µM. Besides, the results for the GI50 with T-47D breast, in the assay with SW-620 colon and in the assay on K-562 leukemia were 1.54 µM, 1.85 µM and 3.15 µM, respectively. Also, the TGI with SF-539 CNS was determined as 3.32 µM; in the assay on UACC-62 melanoma, 4.21 µM; with M14 melanoma, 15.4 µM; in the assay with EKVX NSCLC, 4.23 µM; in the assay with SN12C renal, 5.94 µM; in the assay on OVCAR-4 ovarian it was 9.88 µM. For the same compound, the figures for the TGI with T-47D breast, in the assay with SW-620 colon and in the assay on K-562 leukemia were 3.65 µM, 3.66 µM and > 100 µM, respectively.
In the case of `Cc1ccsc1C(=S)Nc1ccc(Cl)c(/C=N/OC(C)(C)C)c1`, the TGI in the assay with SF-539 CNS, with UACC-62 melanoma, in the assay with M14 melanoma, in the assay on EKVX NSCLC, with CCRF-CEM leukemia and with SN12C renal was > 100 µM in each case. The TGI in the assay with OVCAR-4 ovarian, in the assay on T-47D breast and with SW-620 colon was > 100 µM throughout.
With `O=C1NC(=NCCc2cccc(F)c2)S/C1=C\c1ccc2ncccc2c1`, the GI50 with SF-539 CNS is 1.59 µM; in the assay on UACC-62 melanoma, 5.41 µM; in the assay with M14 melanoma, 3.6 µM; in the assay on CCRF-CEM leukemia, 1.15 µM; with SN12C renal, > 16 µM; in the assay on OVCAR-4 ovarian, > 25 µM. The GI50 is 6.89 µM in the assay with T-47D breast, 0.819 µM with SW-620 colon and 1.01 µM in the assay with K-562 leukemia. For the same compound, the TGI with SF-539 CNS, in the assay with UACC-62 melanoma, with M14 melanoma, in the assay on CCRF-CEM leukemia, in the assay on SN12C renal and in the assay with OVCAR-4 ovarian was > 25 µM throughout. For the same compound, the TGI with T-47D breast, in the assay with SW-620 colon and with K-562 leukemia was > 25 µM throughout.
Turning to `COc1cc2c(c3oc4c(O)cccc4c(=O)c13)CC(C(C)(O)CO)O2` (centres undefined), the TGI in the assay on SF-539 CNS, with UACC-62 melanoma, in the assay with M14 melanoma, with EKVX NSCLC, with CCRF-CEM leukemia and with SN12C renal was > 100 µM in each case. In addition, the TGI in the assay with T-47D breast, with SW-620 colon and in the assay with K-562 leukemia was > 100 µM each time.

For the origin of these results see PubChem BioAssay (NCI).
